According to ChEMBL document CHEMBL1201862, “PubChem BioAssay data set” (2004):
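The compound was tested at five concentrations on cells cultured in 96-well plates, with a 48-hour exposure period. GI50 = concentration required for 50% inhibition of growth.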 The source made the active and inactive calls. Cut-off read from the data, not from the text of the source: active = GI50 up to about 1.1 µM and inactive = higher.

Columns and labels:
Assay in all cases: DTP human tumour cell line panel, 48 h
HOP-92 = system: HOP-92
SNB-75 = system: SNB-75
NCI/ADR-RES = system: NCI/ADR-RES
PC-3 = system: PC-3
TK-10 = system: TK-10
OVCAR-8 = system: OVCAR-8
ACHN = system: ACHN
HL-60 = system: HL-60
HOP-62 = system: HOP-62
NCI-H522 = system: NCI-H522
IGROV-1 = system: IGROV-1
MCF7 = system: MCF7
A498 = system: A498
786-0 = system: 786-0
KM12 = system: KM12
U-251 = system: U-251
LOX IMVI = system: LOX IMVI
NCI-H226 = system: NCI-H226
UACC-257 = system: UACC-257
Malme-3M = system: Malme-3M

Measured: GI50

COc1cc2oc(-c3ccc(O)cc3O)c(CC=C(C)C)c(=O)c2c(O)c1/C=C/C(C)C [ARTOCARPIN]
inactive: HOP-92 3.08 µM | SNB-75 3.04 µM | NCI/ADR-RES 2.64 µM | PC-3 2.79 µM | TK-10 4.85 µM | OVCAR-8 1.75 µM | ACHN 2.8 µM | HL-60 2.75 µM | HOP-62 2.42 µM | NCI-H522 3.24 µM | IGROV-1 3.52 µM | MCF7 2.88 µM | A498 2.21 µM | 786-0 2.14 µM | KM12 3.1 µM | U-251 2.56 µM | LOX IMVI 1.8 µM | NCI-H226 3.58 µM | UACC-257 6.31 µM | Malme-3M 6.4 µM
